This is an account of results in patent publication US11028084B2, “Selective inhibitors of gentotoxic steress-induced IKK/NF-κB pathways” (Max-Delbrück-Centrum für Molekulare Medizin in der …, priority 2016, dated 2021).

Molecules are shown by their SMILES.

The test system of test [1] is IL-1β-induced NF-κB activation. In words: IL-1β-stimulated NF-κB activation, SDS-PAGE/WB and EMSA, U2OS cells. The test is classed as cell-based, human. How it is done:
FIG. 5: (A) U2OS cell were pre-treated with MW01 followed by stimulation with IL-1p. Cell lysates were used for SDS-PAGE/WB and EMSA. (B) Cells pre-treated with increasing concentrations MW01 were stimulated with IL-1p. Cell lysates were used for SDS-PAGE/WB and stained with indicated antibodies.
For the activation of the canonical NF-κB pathway cells were treated with recombinant human TNFα (10 ng/ml) or IL-1β (10 ng/ml) for 20-30 min at 37° C.

In test [2] the target is T1, nuclear IKKγ-PIASy-PARP1-ATM signalosome (Mus musculus, UniProt O88522+P11103+Q62388+Q9JM05).
T1 construct: endogenous in cells; host or cells: MEF (mouse embryonic fibroblasts)
Kind of test: Nuclear PARP1-signalosome formation, IKKγ co-immunoprecipitation, MEF cells. Particulars: irradiation. The test is classed as cell-based. The method, then:
FIG. 8: (A) HepG2 cells were pre-treated with DMSO or MW01 and irradiated. Nuclear cell extracts (NE) were used for PIASy immunoprecipitation (IP). Western blot membranes were incubated with indicated antibodies. (B) Experiment as shown in (A), but with IKKγ IP. (C) Experiment as shown in (B), but done in HEK293 cells. (D) Experiment done as shown in […], but repeated in MEF cells.
Following cell lysis the protein concentration of samples was determined. For input controls, 40 μg lysate were mixed with 6×SDS-buffer and denatured by heating to 95° C. for 4 min. Approximately 1500 μg protein lysate was used for pulldown and samples volumes were equalled with lysis buffer. Lysates were precleared with 30 μl sepharose A or sepharose G beads (depending on the antibody type used for pulldown) for 30 min, and centrifuged for 5 min at 1,500×g. The supernatant was transferred to a new reaction tube. Primary antibody (2-2.5 μg) was added to the cleared lysate for immunoprecipitation overnight while rotating at 4° C. The next day 30 μl sepharose beads per sample were used for immobilisation of antibodies. Following 4 washes with IP wash buffer precipitated proteins were eluted by mixing with 3×SDS-buffer and heating to 95° C. for 4 min.

In test [3] the test system is ATM substrate histone H2AX. In words: Phospho-H2AX immunofluorescence after etoposide, U2OS cells. The settings on record: after etoposide treatment. The test is classed as cell-based, human. How it is done: FIG. 2: U2OS cells were pre-treated and incubated with DMSO or MW01. DNA damage was induced by administration of etoposide. After 2 h cells were fixed, nuclei were stained with DAPI. p65 and phospho-H2AX, which is indicative for DNA DSB, were stained by immunofluorescence. Images were taken at a confocal Zeiss 710 LSM with a 40× oil objective.

Test [4] has as its target T2, PARP1 (Mus musculus, UniProt P11103).
T2 construct: endogenous in cells; host or cells: MEF (mouse embryonic fibroblasts)
Kind of test: PARP1 enzymatic activity, PAR chain formation after γ-irradiation, MEF cells. The test is classed as cell-based. The text has this:
(§1) FIG. 10: (A) MEF cells were pre-treated with the indicated substances, irradiated and cell lysates were used for poly(ADP)-ribose probing using a specific antibody. (B) Experiment performed as described for (A), but using U2OS cells.

Test [5] concerns U2OS cells. In words: qRT-PCR of anti- and pro-apoptotic genes after γ-IR, U2OS cells. The test is classed as cell-based, human. How it is done: FIG. 15: (A), (B) U2OS cells were pre-treated with DMSO or MW01 and irradiated. After 8 h mRNA was isolated and reversely transcribed into cDNA. The obtained cDNA was used to perform qRT-PCR using gene specific exon-exon-spanning primers for mRNA of anti-apoptotic (A) and pro-apoptotic genes (B).
To quantitate specific mRNA (messenger RNA) species in samples RNA was isolated, RNA concentration was measured and mRNA was transcribed into cDNA. The amount of mRNA transcripts of certain genes within a sample was quantified by employing gene specific primers and using a C-1000 Thermal cycler (Biorad). The expression of genes of interest was normalised against two or three reference genes (HRPT1, RPL_13a and B2M) using the CFX manager software. The fold induction of mRNA was calculated over untreated sample levels by the ΔΔ-Ct method.
(In general: Quantitative PCR measures a nucleic acid by following its amplification.)

Test [6] concerns U2OS cells. Kind of test: Caspase-3-dependent cleavage of PARP1, WB, U2OS cells. The test is classed as cell-based, human. How it is done:
FIG. 16: (A) U2OS cells were pre-treated with DMSO or MW01 and irradiated. Cells were lysed 8 h post γ-IR and were used for western blotting and immunochemical staining. (B) HEK293 cells were pre-treated with DMSO or MW01 and irradiated. After 48 h cells were fixed and stained with crystal violet. Dissolved crystal violet was used for absorbance measurement in a visible light spectrophotometer at a wavelength of 595 nm. (C) HEK293 cells were pre-treated with DMSO or MW01 and irradiated. The percentage of viable cells within the population was calculated by exclusion of annexin V and propidium-iodide positive cells measured by flow cytometry. (D) MEF cells were pre-treated with DMSO or MW01 and irradiated. Cells were used for annexin V staining 24 h and 48 after γ-IR. Percentage of annexin V positive cell population was analysed using a flow cytometer. (E) Experiment done as shown in (D) but with HT1080 cells processed 8 h after irradiation. Statistical significance was calculated using students t-test.

In test [7] the target is PARP1 (Homo sapiens, UniProt P09874). In words: PARP1 enzymatic activity, PAR chain formation, U2OS cells. The test is classed as cell-based. Also on record: Experiment performed as described for (A), but using U2OS cells; endogenous in cells; host or cells: U2OS. Particulars: γ-irradiation. How it is done:
as §1
FIG. 14: (A) U2OS cells were pre-treated with different concentrations of olaparib prior to co-treatment with etoposide. Whole cell lysis was performed after 90 min and cleared lysates were used for WB with indicated antibodies. (B) U2OS cells were pre-treated with DMSO, olaparib or the ATM inhibitor Ku55933 and co-treated with etoposide. Cells were harvested after 45 min and subjected to SDS-PAGE/WB. Membranes were stained with the indicated antibodies. The experiment of (B) was performed simultaneously to the experiments of (A) and (E) to control functionality of olaparib in inhibiting PAR chain formation. (C) Densitometrical analyses of (A) and two further independent experiments done as shown in (A). (D) U2OS cells were pre-treated with the substances as indicated prior to irradiation. After 90 min mRNA was isolated, transcribed into cDNA and was used for expression analyses of the indicated genes using quantitative real-time PCR (qRT-PCR). (E) HepG2 cells were pre-treated with the PARP inhibitors olaparib, 3-AB and EB-47 prior to γ-irradiation. Cells were harvested after 15 and 90 min and subjected to SDS-PAGE/WB. […]

T2 sequence (P11103 whole entry): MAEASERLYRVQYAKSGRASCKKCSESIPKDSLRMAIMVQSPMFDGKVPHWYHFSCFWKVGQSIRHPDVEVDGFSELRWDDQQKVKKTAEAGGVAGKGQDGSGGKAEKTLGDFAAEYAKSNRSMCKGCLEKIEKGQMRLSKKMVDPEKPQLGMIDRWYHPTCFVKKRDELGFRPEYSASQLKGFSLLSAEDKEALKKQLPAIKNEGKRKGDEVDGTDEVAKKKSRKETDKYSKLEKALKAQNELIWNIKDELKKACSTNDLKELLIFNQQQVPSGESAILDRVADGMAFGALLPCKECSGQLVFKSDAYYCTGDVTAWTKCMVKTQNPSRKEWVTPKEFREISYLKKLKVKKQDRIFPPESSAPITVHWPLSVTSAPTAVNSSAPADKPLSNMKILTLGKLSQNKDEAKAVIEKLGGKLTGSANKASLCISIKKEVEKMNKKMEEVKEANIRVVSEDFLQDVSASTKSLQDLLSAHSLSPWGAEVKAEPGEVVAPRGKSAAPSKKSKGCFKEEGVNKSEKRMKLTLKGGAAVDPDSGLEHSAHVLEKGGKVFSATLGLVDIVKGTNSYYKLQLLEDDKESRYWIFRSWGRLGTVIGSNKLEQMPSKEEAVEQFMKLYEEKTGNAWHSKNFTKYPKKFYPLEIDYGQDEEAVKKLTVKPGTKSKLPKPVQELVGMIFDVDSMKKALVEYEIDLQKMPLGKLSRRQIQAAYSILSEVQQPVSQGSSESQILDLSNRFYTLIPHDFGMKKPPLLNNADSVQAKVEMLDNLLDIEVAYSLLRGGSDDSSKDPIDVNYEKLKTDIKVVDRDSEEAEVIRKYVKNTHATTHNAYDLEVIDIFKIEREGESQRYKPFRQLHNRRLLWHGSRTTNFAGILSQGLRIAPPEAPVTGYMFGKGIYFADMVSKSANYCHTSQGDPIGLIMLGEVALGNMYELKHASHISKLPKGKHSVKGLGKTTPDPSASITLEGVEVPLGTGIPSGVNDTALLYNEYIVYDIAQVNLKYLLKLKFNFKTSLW
PARP1 (Homo sapiens, UniProt P09874), sequence (P09874 whole entry): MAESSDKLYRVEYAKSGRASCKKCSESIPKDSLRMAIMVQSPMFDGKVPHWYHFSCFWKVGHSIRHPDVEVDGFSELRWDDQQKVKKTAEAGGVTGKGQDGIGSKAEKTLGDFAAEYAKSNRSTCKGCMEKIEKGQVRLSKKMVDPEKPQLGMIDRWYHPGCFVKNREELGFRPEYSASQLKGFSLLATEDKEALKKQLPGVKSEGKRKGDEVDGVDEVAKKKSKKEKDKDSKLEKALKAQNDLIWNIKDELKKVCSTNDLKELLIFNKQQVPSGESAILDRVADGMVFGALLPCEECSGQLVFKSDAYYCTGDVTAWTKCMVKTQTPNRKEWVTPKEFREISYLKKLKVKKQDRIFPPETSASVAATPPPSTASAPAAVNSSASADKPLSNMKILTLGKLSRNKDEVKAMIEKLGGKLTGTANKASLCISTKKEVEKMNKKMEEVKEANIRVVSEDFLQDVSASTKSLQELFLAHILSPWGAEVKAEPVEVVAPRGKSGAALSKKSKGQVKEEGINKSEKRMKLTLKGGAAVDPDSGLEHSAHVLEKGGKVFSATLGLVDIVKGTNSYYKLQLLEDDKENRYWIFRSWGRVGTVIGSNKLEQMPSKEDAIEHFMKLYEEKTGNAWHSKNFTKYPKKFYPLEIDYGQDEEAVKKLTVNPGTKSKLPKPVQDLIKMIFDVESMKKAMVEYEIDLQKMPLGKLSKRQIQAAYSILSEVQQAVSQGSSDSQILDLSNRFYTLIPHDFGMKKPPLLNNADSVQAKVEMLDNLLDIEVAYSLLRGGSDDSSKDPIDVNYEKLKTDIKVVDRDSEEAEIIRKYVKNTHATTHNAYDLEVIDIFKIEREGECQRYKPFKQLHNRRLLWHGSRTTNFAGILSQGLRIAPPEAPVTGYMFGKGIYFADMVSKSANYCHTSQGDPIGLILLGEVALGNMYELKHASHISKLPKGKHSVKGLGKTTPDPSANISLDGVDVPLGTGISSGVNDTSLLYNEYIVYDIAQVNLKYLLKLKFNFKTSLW

Turning to `COc1ccc2c(c1OC)c(=O)n1c3ccc(O)cc3c3ccnc2c31` [MW01, 12-hydroxy-6,7-dimethoxy-8H-benzo[c]indolo[3,2,1-ij][1,5]naphthyridin-8-one], the “p65 S536 phosphorylation following IL-1β stimulation” value in test [1] (U2OS) is on record as “neither inhibited p65 S536 phosphorylation”. In test [1] (up to 100 μM), the “IKK activation and p65 S536 phosphorylation after IL-1β at high concentrations” value is reported as “no effect on the phosphorylation state of IKK or p65”. The “interaction of IKKγ with PARP1, p-ATM S1981 or PIASy” value in test [2] is “abrogation of the interaction”. In addition, the “phosphorylation of the ATM substrate histone H2AX” value in test [3] is “did not lead to impaired phosphorylation”. In addition, the “PAR chain formation / PARP1 enzymatic activity” value on PARP1 [4] was “did not interfere with activation of PARP1 enzymatic activity”. Besides, in the test on U2OS cells [5] (8 h after γ-IR), the “BIRC3 mRNA” value is reported as “down-regulated”, the “expression of BCL2L1 mRNA” value was “fully inhibited” and the “expression of XIAP mRNA” value is listed as “moderately inhibited”. Also, in the test with U2OS cells [5] (after irradiation), the “BBC3 mRNA expression, induction” value worked out at 3 fold and the “PMAIP1 mRNA expression” value is listed as “further elevated”. Besides, in the test on U2OS cells [5] (after γ-IR, in comparison to irradiated controls), the “mRNA expression of TNFAIP3” value is on record as “abolished mRNA expression”. For the same compound, the “mRNA expression of PMAIP1” value with U2OS cells [5] (pre-treatment without irradiation) is given as “already increased”. For the same compound, in the test with U2OS cells [5] (without irradiation), the “BBC3 mRNA expression” value is reported as “not influenced” and the “mRNA expression of BIRC3, XIAP or BCL2L1 in comparison to the DMSO control” value is listed as “did not significantly change”. Besides, in the test with U2OS cells [6] (8 h post γ-IR), the PARP1 cleavage entry was “strongly increased”. For the same compound, in the test with U2OS cells [6] (resting cells), the PARP1 cleavage entry is recorded as “slight increase”. In addition, the “PAR chain formation / PARP1 enzymatic activity” value on PARP1 [7] is “did not interfere with activation of PARP1 enzymatic activity”.
